The supplement of paper PMC10307832

Key:
Test in all cases: relative viability (nuclei count vs DMSO), 5 days (fraction); higher = more cells survive
EKVX = system: EKVX
How it was run: (§1)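 Relative viability is defined as nuclei in treated wells over nuclei in vehicle wells. Duplicate plates were run and medians reported. Lung cancer cell lines in 1536-well plates were dosed by pin tool one day after seeding, with one drug or with a fixed anchor-drug dose plus five library-drug doses (not always all listed) in √10 steps, and nuclei were counted after 5 days.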

LCLC-97TM1 = system: LCLC-97TM1
How it was run: as §1

NCI-H727 = system: NCI-H727
How it was run: as §1

NCI-H1975 = system: NCI-H1975
How it was run: as §1

NCI-H322M = system: NCI-H322M
How it was run: as §1

NCI-H838 = system: NCI-H838
How it was run: as §1

NCI-H647 = system: NCI-H647
How it was run: as §1

SK-LU-1 = system: SK-LU-1
How it was run: as §1

NCI-H358 = system: NCI-H358
How it was run: as §1

NCI-H441 = system: NCI-H441
How it was run: as §1

NCI-H661 = system: NCI-H661
How it was run: as §1

## CCNC(=O)c1noc(-c2cc(C(C)C)c(O)cc2O)c1-c1ccc(CN2CCOCC2)cc1 [Luminespib] + COc1cc2c(Oc3ccc(NC(=O)C4(C(=O)Nc5ccc(F)cc5)CC4)cc3F)ccnc2cc1OCCCN1CCOCC1 [Foretinib] (partner 0.25 µM)
EKVX; first compound 0.06325 µM
  relative viability: 0.815
EKVX; first compound 0.2 µM
  relative viability: 0.108
LCLC-97TM1; first compound 0.002 µM
  relative viability: 0.949
LCLC-97TM1; first compound 0.006325 µM
  relative viability: 0.915
LCLC-97TM1; first compound 0.02 µM
  relative viability: 0.935
LCLC-97TM1; first compound 0.06325 µM
  relative viability: 0.952
LCLC-97TM1; first compound 0.2 µM
  relative viability: 0.626
NCI-H727; first compound 0.002 µM
  relative viability: 1.04
NCI-H727; first compound 0.006325 µM
  relative viability: 0.834
NCI-H727; first compound 0.02 µM
  relative viability: 0.669
NCI-H727; first compound 0.06325 µM
  relative viability: 0.219
NCI-H727; first compound 0.2 µM
  relative viability: 0.332
NCI-H1975; first compound 0.002 µM
  relative viability: 1.07
NCI-H1975; first compound 0.006325 µM
  relative viability: 0.97
NCI-H1975; first compound 0.02 µM
  relative viability: 0.615
NCI-H1975; first compound 0.06325 µM
  relative viability: 0.0994
NCI-H1975; first compound 0.2 µM
  relative viability: 0.108
NCI-H322M; first compound 0.002 µM
  relative viability: 0.932
NCI-H322M; first compound 0.006325 µM
  relative viability: 0.998
NCI-H322M; first compound 0.02 µM
  relative viability: 0.795
NCI-H322M; first compound 0.06325 µM
  relative viability: 0.323
NCI-H322M; first compound 0.2 µM
  relative viability: 0.3
NCI-H838; first compound 0.002 µM
  relative viability: 1.08
NCI-H838; first compound 0.006325 µM
  relative viability: 1.06
NCI-H838; first compound 0.02 µM
  relative viability: 1.07
NCI-H838; first compound 0.06325 µM
  relative viability: 0.582
NCI-H838; first compound 0.2 µM
  relative viability: 0.148
NCI-H647; first compound 0.002 µM
  relative viability: 1.32
NCI-H647; first compound 0.006325 µM
  relative viability: 1.12
NCI-H647; first compound 0.02 µM
  relative viability: 1.32
NCI-H647; first compound 0.06325 µM
  relative viability: 0.131
NCI-H647; first compound 0.2 µM
  relative viability: 0.0972
SK-LU-1; first compound 0.002 µM
  relative viability: 0.825
SK-LU-1; first compound 0.006325 µM
  relative viability: 0.559
SK-LU-1; first compound 0.02 µM
  relative viability: 0.392
SK-LU-1; first compound 0.06325 µM
  relative viability: 0.131
SK-LU-1; first compound 0.2 µM
  relative viability: 0.133
NCI-H358; first compound 0.002 µM
  relative viability: 0.69
NCI-H358; first compound 0.006325 µM
  relative viability: 0.705
NCI-H358; first compound 0.02 µM
  relative viability: 0.631
NCI-H358; first compound 0.06325 µM
  relative viability: 0.06
NCI-H358; first compound 0.2 µM
  relative viability: 0.0569
NCI-H441; first compound 0.002 µM
  relative viability: 0.927
NCI-H441; first compound 0.006325 µM
  relative viability: 0.92
NCI-H441; first compound 0.02 µM
  relative viability: 1.51
NCI-H441; first compound 0.06325 µM
  relative viability: 0.196
NCI-H441; first compound 0.2 µM
  relative viability: 0.149
NCI-H661; first compound 0.002 µM
  relative viability: 1.11
NCI-H661; first compound 0.006325 µM
  relative viability: 0.992
NCI-H661; first compound 0.02 µM
  relative viability: 0.922
NCI-H661; first compound 0.06325 µM
  relative viability: 0.597
NCI-H661; first compound 0.2 µM
  relative viability: 0.301
